The target in assay [1] is T1, Type-1 angiotensin II receptor (Homo sapiens, UniProt P30556).
T1 sequence (P30556 whole entry): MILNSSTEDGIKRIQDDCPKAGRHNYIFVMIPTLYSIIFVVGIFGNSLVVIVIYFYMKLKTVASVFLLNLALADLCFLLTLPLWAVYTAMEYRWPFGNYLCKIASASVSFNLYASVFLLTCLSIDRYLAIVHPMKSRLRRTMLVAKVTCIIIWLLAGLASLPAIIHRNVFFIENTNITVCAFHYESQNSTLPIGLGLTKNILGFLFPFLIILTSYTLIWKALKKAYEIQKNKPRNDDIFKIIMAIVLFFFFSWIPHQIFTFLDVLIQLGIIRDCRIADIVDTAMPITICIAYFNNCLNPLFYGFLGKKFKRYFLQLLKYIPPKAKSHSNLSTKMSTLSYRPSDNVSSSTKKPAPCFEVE
Description: (§1) Inhibitory concentration against angiotensin II receptor, type 1

Assay [2] addresses T2, Type-2 angiotensin II receptor (Homo sapiens, UniProt P50052).
T2 sequence (P50052 whole entry): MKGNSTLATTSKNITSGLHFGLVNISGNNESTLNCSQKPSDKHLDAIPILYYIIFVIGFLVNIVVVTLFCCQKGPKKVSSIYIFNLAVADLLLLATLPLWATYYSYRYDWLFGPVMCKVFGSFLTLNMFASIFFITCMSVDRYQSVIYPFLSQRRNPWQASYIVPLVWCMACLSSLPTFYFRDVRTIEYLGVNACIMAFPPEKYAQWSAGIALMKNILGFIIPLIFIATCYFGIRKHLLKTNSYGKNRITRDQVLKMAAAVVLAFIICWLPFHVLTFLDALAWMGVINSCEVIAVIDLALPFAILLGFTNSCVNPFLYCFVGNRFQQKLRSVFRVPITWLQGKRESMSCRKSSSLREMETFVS
Description: Inhibitory concentration against angiotensin II receptor, type 2

For assay [3], the target named is T3, Adrenergic receptor alpha-1 (Homo sapiens, UniProt P35348+P25100+P35368).
T3 sequence (P35348 whole entry): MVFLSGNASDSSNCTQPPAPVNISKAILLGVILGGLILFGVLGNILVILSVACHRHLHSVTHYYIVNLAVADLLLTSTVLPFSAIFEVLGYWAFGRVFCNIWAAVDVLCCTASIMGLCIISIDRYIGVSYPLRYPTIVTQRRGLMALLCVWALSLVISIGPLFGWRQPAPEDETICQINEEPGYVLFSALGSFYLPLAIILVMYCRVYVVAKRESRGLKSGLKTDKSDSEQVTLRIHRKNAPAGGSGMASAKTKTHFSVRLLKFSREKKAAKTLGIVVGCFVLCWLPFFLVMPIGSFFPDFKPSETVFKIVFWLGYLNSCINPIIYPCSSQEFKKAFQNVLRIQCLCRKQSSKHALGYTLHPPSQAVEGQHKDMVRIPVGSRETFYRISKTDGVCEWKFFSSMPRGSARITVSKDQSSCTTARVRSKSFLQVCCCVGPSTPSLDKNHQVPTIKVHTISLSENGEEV
T3 sequence (P25100 whole entry): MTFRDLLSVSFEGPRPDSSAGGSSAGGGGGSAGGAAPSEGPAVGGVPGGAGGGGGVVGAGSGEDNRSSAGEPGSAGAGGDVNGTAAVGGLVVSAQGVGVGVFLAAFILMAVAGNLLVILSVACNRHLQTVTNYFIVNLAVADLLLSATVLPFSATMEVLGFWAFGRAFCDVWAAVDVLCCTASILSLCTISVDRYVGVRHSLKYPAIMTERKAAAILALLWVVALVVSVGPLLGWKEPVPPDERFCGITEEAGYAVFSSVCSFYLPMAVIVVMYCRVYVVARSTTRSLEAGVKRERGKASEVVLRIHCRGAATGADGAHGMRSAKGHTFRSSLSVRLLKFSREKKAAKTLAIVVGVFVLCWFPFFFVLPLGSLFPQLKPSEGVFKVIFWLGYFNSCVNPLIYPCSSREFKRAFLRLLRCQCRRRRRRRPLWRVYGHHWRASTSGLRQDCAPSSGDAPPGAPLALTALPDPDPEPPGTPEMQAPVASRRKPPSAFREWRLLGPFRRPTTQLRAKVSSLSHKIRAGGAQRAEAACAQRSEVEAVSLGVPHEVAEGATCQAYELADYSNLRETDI
T3 sequence (P35368 whole entry): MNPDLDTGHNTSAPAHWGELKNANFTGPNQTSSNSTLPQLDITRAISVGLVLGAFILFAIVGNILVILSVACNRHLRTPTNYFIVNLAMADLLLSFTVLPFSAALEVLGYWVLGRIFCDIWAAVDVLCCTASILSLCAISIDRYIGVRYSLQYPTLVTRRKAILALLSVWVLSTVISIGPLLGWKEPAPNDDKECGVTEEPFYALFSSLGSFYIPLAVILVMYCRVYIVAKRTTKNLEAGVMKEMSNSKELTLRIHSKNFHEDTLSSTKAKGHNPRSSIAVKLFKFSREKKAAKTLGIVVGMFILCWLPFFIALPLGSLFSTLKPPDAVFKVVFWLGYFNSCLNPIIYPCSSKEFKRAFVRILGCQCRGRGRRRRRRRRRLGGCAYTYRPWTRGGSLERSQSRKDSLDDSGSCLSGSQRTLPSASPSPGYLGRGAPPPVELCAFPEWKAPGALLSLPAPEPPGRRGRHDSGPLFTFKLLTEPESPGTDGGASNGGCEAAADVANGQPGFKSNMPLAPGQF
Description: Inhibitory concentration against alpha adrenergic receptor

Assay [4] has as its target Prostaglandin G/H synthase 1 (Homo sapiens, UniProt P23219).
Description: Inhibitory concentration against prostaglandin G/H synthase 1
For assay [5], the target named is T4, Polyunsaturated fatty acid 5-lipoxygenase (Homo sapiens, UniProt P09917).
T4 sequence (P09917 whole entry): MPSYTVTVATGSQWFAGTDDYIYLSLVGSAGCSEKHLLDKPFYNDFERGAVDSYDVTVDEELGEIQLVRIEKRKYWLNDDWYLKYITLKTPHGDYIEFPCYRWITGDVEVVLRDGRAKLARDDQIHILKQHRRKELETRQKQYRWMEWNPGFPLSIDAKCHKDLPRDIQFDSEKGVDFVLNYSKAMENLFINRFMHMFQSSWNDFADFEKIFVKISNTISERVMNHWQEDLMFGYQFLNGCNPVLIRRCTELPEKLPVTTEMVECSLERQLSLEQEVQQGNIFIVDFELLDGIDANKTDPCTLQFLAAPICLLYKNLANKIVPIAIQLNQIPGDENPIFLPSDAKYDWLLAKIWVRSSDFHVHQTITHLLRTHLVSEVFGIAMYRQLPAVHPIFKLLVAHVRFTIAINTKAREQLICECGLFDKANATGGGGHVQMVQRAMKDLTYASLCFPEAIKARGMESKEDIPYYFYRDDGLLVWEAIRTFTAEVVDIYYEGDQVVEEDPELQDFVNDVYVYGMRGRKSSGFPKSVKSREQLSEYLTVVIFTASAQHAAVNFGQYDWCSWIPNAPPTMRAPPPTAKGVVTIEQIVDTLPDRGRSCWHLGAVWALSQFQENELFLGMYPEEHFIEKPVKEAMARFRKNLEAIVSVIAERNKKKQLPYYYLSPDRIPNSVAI
Description: Inhibitory concentration against arachidonate 5-lipoxygenase

The target in assay [6] is Histamine H1 receptor (Homo sapiens, UniProt P35367).
Chain of Histamine H1 receptor (P35367 whole entry): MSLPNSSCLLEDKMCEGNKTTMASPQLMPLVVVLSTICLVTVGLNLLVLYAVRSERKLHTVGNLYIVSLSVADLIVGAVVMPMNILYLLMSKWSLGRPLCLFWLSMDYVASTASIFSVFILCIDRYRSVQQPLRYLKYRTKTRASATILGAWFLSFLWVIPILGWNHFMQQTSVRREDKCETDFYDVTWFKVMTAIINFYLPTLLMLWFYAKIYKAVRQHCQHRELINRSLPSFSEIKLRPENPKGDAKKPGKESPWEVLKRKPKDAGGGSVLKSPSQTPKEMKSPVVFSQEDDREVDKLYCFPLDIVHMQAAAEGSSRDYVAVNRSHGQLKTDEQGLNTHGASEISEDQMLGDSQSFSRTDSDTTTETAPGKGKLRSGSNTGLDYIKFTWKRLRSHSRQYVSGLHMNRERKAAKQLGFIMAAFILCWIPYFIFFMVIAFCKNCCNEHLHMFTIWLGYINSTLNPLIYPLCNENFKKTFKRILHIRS
Description: Inhibition constant against histamine H1 receptor
In assay [7] the target is T5, Thromboxane A2 receptor (Homo sapiens, UniProt P21731).
T5 sequence (P21731 whole entry): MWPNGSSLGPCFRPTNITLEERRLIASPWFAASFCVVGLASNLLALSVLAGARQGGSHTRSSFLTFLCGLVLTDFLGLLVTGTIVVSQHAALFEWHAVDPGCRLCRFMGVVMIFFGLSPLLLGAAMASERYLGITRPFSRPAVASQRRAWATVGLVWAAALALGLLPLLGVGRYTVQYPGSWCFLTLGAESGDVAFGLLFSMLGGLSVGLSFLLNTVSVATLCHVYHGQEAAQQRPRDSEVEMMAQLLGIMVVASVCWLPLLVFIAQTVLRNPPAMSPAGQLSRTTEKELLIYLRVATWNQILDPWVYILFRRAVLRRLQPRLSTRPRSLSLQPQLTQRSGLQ
Description: Inhibition constant against thromboxane A2 receptor to prostaglandin H2 receptor

Assay [8] has as its target T6, Peroxisome proliferator-activated receptor gamma (Homo sapiens, UniProt P37231).
T6 sequence (P37231 whole entry): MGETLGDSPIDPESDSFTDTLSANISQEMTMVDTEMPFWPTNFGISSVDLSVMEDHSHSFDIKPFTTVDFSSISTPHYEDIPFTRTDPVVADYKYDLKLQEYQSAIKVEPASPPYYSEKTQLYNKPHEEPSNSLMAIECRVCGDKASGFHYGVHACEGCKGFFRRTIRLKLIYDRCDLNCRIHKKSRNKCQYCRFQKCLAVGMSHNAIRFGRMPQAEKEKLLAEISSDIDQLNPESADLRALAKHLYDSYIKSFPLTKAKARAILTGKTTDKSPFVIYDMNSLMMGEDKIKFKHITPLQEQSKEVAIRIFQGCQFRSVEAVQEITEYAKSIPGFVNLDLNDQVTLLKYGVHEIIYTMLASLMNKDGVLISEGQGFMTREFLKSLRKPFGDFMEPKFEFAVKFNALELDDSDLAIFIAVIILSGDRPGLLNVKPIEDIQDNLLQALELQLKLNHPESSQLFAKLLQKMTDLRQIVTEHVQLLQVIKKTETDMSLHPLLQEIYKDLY
Description: Binding affinity towards peroxisome proliferator activated receptor gamma

The target in assay [9] is T7, Peroxisome proliferator-activated receptor alpha (Homo sapiens, UniProt Q07869).
T7 sequence (Q07869 whole entry): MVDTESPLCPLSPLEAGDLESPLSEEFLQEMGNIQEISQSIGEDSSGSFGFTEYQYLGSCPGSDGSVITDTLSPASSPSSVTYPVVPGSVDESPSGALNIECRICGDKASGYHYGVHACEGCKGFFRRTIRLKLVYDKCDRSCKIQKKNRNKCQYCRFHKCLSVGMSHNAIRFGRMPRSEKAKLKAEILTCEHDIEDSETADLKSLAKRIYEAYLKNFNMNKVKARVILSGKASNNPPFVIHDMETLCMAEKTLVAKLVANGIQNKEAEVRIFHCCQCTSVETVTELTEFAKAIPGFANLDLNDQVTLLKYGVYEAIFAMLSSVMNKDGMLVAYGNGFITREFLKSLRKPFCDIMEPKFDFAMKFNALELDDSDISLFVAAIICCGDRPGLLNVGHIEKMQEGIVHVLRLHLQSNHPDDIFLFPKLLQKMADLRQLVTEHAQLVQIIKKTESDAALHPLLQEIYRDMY
Description: Binding affinity towards peroxisome proliferator activated receptor alpha

The target in assay [10] is Thromboxane-A synthase (Homo sapiens, UniProt P24557).
Chain of Thromboxane-A synthase (P24557 whole entry): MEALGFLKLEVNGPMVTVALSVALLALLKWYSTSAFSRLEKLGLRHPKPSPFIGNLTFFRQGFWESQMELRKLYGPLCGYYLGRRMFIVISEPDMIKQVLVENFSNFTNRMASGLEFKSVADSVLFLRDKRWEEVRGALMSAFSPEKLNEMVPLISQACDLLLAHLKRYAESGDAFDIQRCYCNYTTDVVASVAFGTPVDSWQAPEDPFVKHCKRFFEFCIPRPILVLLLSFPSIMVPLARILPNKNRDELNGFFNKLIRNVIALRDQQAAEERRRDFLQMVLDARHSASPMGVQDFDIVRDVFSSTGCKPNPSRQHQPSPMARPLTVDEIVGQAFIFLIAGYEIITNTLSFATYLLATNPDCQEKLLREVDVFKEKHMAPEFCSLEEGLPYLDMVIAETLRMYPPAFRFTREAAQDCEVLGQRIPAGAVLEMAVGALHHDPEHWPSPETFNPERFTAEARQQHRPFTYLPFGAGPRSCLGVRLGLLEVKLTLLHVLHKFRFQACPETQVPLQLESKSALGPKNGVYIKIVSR
Description: Inhibitory concentration against thromboxane A2 synthase
Assay [11] concerns the target T8, Endothelin-1 receptor (Homo sapiens, UniProt P25101).
T8 sequence (P25101 whole entry): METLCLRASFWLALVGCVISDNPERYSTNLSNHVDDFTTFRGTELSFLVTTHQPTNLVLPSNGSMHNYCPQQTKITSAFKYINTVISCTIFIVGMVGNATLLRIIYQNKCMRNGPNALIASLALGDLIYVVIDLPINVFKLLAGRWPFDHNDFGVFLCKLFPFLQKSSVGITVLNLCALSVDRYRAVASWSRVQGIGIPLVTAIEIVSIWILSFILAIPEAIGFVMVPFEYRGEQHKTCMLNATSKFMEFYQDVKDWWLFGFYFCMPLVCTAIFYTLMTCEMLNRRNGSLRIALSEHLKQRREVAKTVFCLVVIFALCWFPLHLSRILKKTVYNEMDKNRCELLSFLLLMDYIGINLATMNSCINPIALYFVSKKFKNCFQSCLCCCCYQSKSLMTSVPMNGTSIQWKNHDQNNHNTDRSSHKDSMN
Description: Inhibitory concentration against endothelin receptor type A

The target in assay [12] is T1, Type-1 angiotensin II receptor. This is another data set of the same source.
Description: as §1

The results in this text go back to ChEMBL document CHEMBL1140446, “Designed multiple ligands. An emerging drug discovery paradigm” (J Med Chem, 2005).

Each structure is given as a SMILES string. Where only a bound is given, the exact number is not on record here.

Chain of Prostaglandin G/H synthase 1 (P23219 whole entry): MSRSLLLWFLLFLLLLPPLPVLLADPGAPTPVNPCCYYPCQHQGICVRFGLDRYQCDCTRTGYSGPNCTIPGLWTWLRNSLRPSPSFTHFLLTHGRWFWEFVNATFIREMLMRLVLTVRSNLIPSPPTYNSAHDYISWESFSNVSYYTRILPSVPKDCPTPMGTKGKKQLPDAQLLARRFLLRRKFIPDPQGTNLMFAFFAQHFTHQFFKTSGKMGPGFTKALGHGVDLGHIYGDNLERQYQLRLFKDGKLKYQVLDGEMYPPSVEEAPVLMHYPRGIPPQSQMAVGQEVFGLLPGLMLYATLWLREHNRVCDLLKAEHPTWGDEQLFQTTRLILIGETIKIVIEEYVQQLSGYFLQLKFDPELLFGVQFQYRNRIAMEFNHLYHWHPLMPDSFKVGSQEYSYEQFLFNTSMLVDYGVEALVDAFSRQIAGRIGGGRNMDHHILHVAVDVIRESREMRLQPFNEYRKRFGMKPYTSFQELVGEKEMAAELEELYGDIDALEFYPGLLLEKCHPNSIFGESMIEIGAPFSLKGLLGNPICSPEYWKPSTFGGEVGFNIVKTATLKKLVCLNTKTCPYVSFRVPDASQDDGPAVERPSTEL

As for `CCCCCN(C(=O)c1ccccc1)c1ccc2nc(CCC)n(Cc3ccc(-c4ccccc4-c4nn[nH]n4)cc3)c(=O)c2c1`, the IC50 in [1] stood at 1.7 nM; in assay [2] it was 0.7 nM.

For `CCCCc1nc2ccc(NC(=O)N(C)C(C)C)cc2c(=O)n1Cc1ccc(-c2ccccc2-c2nnn[nH]2)cc1`, the 50% inhibitory concentration (IC50) in assay [1] was 0.1 nM; in [2], 4500 nM.

Regarding `O=C1Cc2cc(CCN3CCN(c4nsc5ccccc45)CC3)c(Cl)cc2N1` [ZIPRASIDONE], the IC50 in assay [3] turned out to be 11 nM.

On to `CC1(C)Cc2c(-c3ccccc3)c(-c3ccc(Cl)cc3)c(CC(=O)O)n2C1` [LICOFELONE], for which the IC50 in [4] came out at 160 nM; in assay [5] it was 210 nM.

Turning to `COC1(c2cc(F)cc(OCc3cc(-c4ccccc4)n(-c4ccc(S(C)(=O)=O)cc4)n3)c2)CCOCC1`, in assay [4], the IC50 was over 10 nM.

`CN(C)C/C=C1\c2ccccc2COc2ccc(CC(=O)O)cc21`: the Ki in [6] was 11 nM; in assay [7], over 1000 nM.

Consider `CC(Cc1ccccc1)(Oc1ccc(Cl)cc1)C(=O)O` (stereo not given), for which the half-inhibitory concentration (IC50) in assay [8] amounted to 3.9 µM; in [9], 4.4 µM.

`O=C(CN1CCN(Cc2ccc(Cl)cc2)CC1)N1CCc2ccccc21` returned an IC50 in [3] of 88 nM.

On to `O=C(O)c1ccc2c(c1)/C(=C/Cn1cnc3ccccc31)c1ccccc1CO2`, for which the Ki in assay [7] stood at 15 nM.

Regarding `CNc1nc2c(Cc3cccnc3)c(C)c(O)c(C)c2s1`, the half-inhibitory concentration (IC50) is 90 nM in [10] and 100 nM in assay [5].

In [10], `Cc1c(Cc2ccncc2)n(CCNS(=O)(=O)c2ccc(F)cc2)c2ccc(CCC(=O)O)cc12` gave a concentration for half-maximal inhibition (IC50) of 78 nM.

With `Cc1oc(-c2ccccc2)nc1CCOc1ccc(OC(C)(C)C(=O)O)cc1`, the half-inhibitory concentration (IC50) in assay [8] was found to be 2.57 µM; in [9] it was 1.74 µM.

Regarding `Cc1onc(NS(=O)(=O)c2ccccc2-c2ccc(-c3ncco3)cc2CN(C)C(=O)CC(C)(C)C)c1C` [EDONENTAN], the Ki is 10 nM in assay [11] and over 10 nM in [12].

As for `O=C(O)Cc1ccc2c(c1)C(=CCN1CCC(Cc3ccccc3)CC1)c1ccccc1CO2`, the Ki in assay [6] worked out at 20 nM; in [7] it was 740 nM.

Turning to `CCCCC1=NC2(CCCC2)C(=O)N1Cc1ccc(-c2ccccc2S(=O)(=O)Nc2noc(C)c2C)c(COCC)c1`, the Ki in assay [11] turned out to be 9.3 nM; in assay [12], 0.8 nM.
